According to patent publication US11680078B2, “Anticancer compounds” (GODAVARI BIOREFINERIES LIMITED, priority 2017, dated 2023):
Values joined by “and” are separate entries in the source; they are usually repeats but may differ in a detail not shown here. Equal entries are not always repeated.

How the values were obtained:
[1] = tested on: spheres of PC3; assay: In vitro sphere-forming assay, PC3 in Prostosphere media; format: cell-based; conditions: 2000 cells/well, n = 6 ± S.D
Description: (§1) Sphere assay measures the ability of Cancer Stein Cells to form spheres in specially designed serum-free medium. We have used this assay to measure the killing efficiency of the test compounds as compared to the standard chemotherapeutic drug, Cisplatin.
(§2) Materials and Reagents:50× B27 Supplement (Life Technologies, Invitrogen, Catalog No.: 17502-044), Fibroblast Growth Factor (FGF) (Sigma-Aldrich, Catlog No.: F029125), Epidermal Growth Factor (EGF) (Sigma-Aldrich, Catlog No.: E9644), Insulin (Sigma, Catlog No.: 19278), Dulbecco's Modified Eagle Medium/F12 (HiMedia Catlog No.: AL139-6), Dulbecco's Phosphate Buffered Saline (HiMedia Catlog No.: TL1006), Trypan Blue (TC193), Prostate Epithelial Media (LONZA, Catlog No.: CC-3166) MEGM (LONZA, Catlog No.: CC-3051), Heparin (Sigma, Catlog No.: H3393), Penstrep (HiMedia, Catlog No.: A002)
Prostosphere Media Preparation (For 100 mL):1 g methyl cellulose autoclaved with magnetic stirrer, Plain media (Prostate Epithelial Basal Medium), 100 mL added and dissolved, under magnetic stirring. After complete dissolution, add: Insulin-40 μL, B27-2 mL, EGF-80 μL, Penstrep-1 ml.
(§3) Procedure: —The cells were trypsinised and made into single-cell suspension by passing through cell strainers ([…], respectively), The cells were diluted at the concentration of 2000 cells/100 μL and suspended in either Mammosphere (for breast cell lines) or Prostosphere (for prostate cell lines). 100 μL of this suspension was added into each well of 96-well suspension plates and incubated at 37° C., 5% CO2 for 24 hrs. Appropriate concentrations of the drugs (2 μL) were added into respective wells with 100 μL of stem cell culture medium. Plates were incubated at 37° C., 5% CO2 for 72 hrs. After incubation 2.5 μL of the respective drug concentration and 50 μL of stem cell culture medium were added into each well and the plates were further incubated at 37° C., 5% CO2 for 72 hrs. 3 μL of the respective drug concentration was added with 50 μL of stem cell culture medium again after incubation and plates were incubated again for 72 hrs at 37° C., 5% CO2. Number of primary spheres formed for each concentration was counted. A comparative graph of number of spheres formed was plotted against the concentration and the growth curve was compared with the positive control.

[2] = tested on: PC3; assay: MTT antiproliferative assay, PC3; format: cell-based; conditions: PC3 prostate cell line, 48 hrs drug incubation
Method: (§4) MTT assay is a simple and sensitive assay where, metabolic reducing activity of the cells is measured. The increase of this activity in time is taken as a parameter of cell growth. If treatment with a drug impairs this increase, the action may be a consequence of growth inhibition, cell killing or both. The compounds of Formula V to XIV of the present invention, standard cytotoxic drug (e.g. Cisplatin) were tested at different concentrations (1, 0.1, 0.01, 0.001 mM) using breast and prostate cancer cell lines. All cell lines were cultured in a 37° C. incubator with a 5% CO2 environment. Compounds were dissolved in DMSO with a concentration of 0.1M (stock solution). Cells were seeded into 96-well plates at suitable plating efficiency.
(§5) Following Plating Efficiencies were Standardized for MTT Assay:
(§6) The MTT procedure followed was as follows. Briefly, the cells were plated in 96 well plate as per predetermined plating efficiency (Table 1) The plates were then incubated for 24 hrs in 5% CO2 atmosphere at 37° C. Appropriate concentrations of the drugs were then added to the plate and further incubation was carried out for 48 hrs (in 5% CO2 atmosphere at 37° C.). The assay plate was then centrifuged twice at 3000 rpm for 3 mins and supernatant was then discarded. 100 ul of MTT solution (0.5 mg/ml) was then added to each well of the plate and it was further incubated for 4 hrs (in 5% CO2 atmosphere at 37° C.) Following 4 hr incubation, the plate was then centrifuged twice, and supernatant was aspirated off very carefully. 200 ul of DMSO was then added to each well to solubilize. MTT crystals and mixed well by shaking the plate. XY graph of log Percent viability was then plotted against log drug concentration. […] (Drug concentration inhibiting the 50% of cell population) was then calculated by regression analysis.

[3] = tested on: MCF7; assay: MTT antiproliferative assay, MCF7; format: cell-based; conditions: MCF-7 breast cell line, 48 hrs drug incubation
Method: as §4, §5, §6

[4] = tested on: PC3; assay: Soft Agar colony-formation Assay, PC3; format: cell-based; conditions: PC3 prostate cell line, 1 week
Method: (§7) The Soft Agar Colony-formation Assay is an anchorage-independent growth assay in soft agar, which is one of the most stringent assays for detecting malignant transformation of cells. For this assay, malignant cells are cultured with appropriate controls in soft agar medium for 1-2 weeks. Following this incubation period, formed colonies can either be analyzed morphologically using cell stain and quantifying the number of colonies formed.
(§8) Briefly, for Soft Agar Assay a mixture of 50 ul of 2× medium (taken appropriately as per cell line) and 50 ul of 1.2% Bacto Agar were plated on to each well of 96 well micro titer assay plate. 10 ul of cells (Of specific plating efficiency pre-standardized for respective cell line) were mixed with 20 ul of 2× medium and 30 ul of 0.8% of Bacto Agar and 1.6 ul of drug (of appropriate concentration) in a vial and transferred to the solidified pre-layers of the assay plates. The cells were then allowed to grow and form colonies at 37° C. and 5% CO2 for 1 week. An intermittent feeding with 50 ul of appropriate 2× medium was performed after 3 days of experimental set up. 16 ul of Alamar Blue (1.5 mg/ml) was then added to all the wells to quantify the developed colonies. The plates were incubated for 24 hrs at 37° C. Absorbance was then measured at 630 nm. XY graph of log Percent viability was then plotted against log drug concentration. IC50 (Drug concentration inhibiting the 50% of cell population) was then calculated by regression analysis.
(§9) Following Plating Efficiencies Were Standardized for Soft Agar Assay: […]

[5] = tested on: MDAMB231; assay: Soft Agar colony-formation Assay, MDAMB231; format: cell-based; conditions: MDAMB231 breast cell line, 1 week
Method: as §7, §8, §9

[6] = tested on: MDAMB231; assay: MTT antiproliferative assay, MDAMB231; format: cell-based; conditions: MDAMB231 breast cell line, 48 hrs drug incubation
Method: as §4, §5, §6

[7] = tested on: DU145; assay: MTT antiproliferative assay, DU145; format: cell-based; conditions: DU145 prostate cell line, 48 hrs drug incubation
Method: as §4, §5, §6

[8] = tested on: spheres of MDAMB231; assay: In vitro sphere-forming assay, MDAMB231 in Mammosphere media; format: cell-based; conditions: 2000 cells/well, n = 6 ± S.D
Description: as §1, §2
Mammosphere Media Preparation (For 100 mL): 1 g methyl cellulose autoclaved with magnetic stirrer Plain media (MEBM), 100 mL added and dissolved under magnetic stirring. After complete dissolution, add: FGF-80 μL, EGF-40 μL, Penstrep-1 mL, Heparin-400 μL.
as §3

[9] = tested on: normal lymphocytes; assay: Normal cell assay (MTT) on lymphocytes from a healthy donor
Method: In order to test the activity of cytotoxic drugs towards normal cells, we performed MTT
Assay for these cytotoxic drugs using lymphocytes obtained from a healthy donor.
Briefly, diluted defibrinated fresh blood was overlaid gradually on HiSeP LSM1077 and centrifuged at low speed for 30 mins. The lymphocyte layer (the buffy coat) (Fig) was carefully removed in a new collection tube. The buffy coat was given another wash, by the diluent buffer, to reduce the platelet contamination. The supernatant was discarded, and the pellet was resuspended in diluent buffer. The viability was checked by Haemocytometer. Cells with Viability and Purity of 95% and more were considered for the assay. MTT assay was performed with these cells as described above with plating efficiency of 0.7 million/ml.

[10] = Homo sapiens, MDA-MB-231, 168 h

Structure (SMILES)	IC50 ([2]; Homo sapiens, PC-3) [µM]	IC50 ([3]; Homo sapiens, MCF7) [µM]	IC50 ([4]; Homo sapiens, PC-3, 168 h) [µM]	IC50 [5, 10] [µM]	IC50 ([6]; Homo sapiens, MDA-MB-231) [µM]	IC50 ([7]; Homo sapiens, DU-145) [µM]	3D sphere count of PC3 ([1]; drug conc 0.025 uM)	3D sphere count of PC3 ([1]; drug conc 0.25 uM)	3D sphere count of PC3 ([1]; drug conc 2.5 uM)	3D sphere count of PC3 ([1]; drug conc 25 uM)	3D sphere count of PC3 ([1]; drug conc 250 uM)	3D sphere count of MDAMB231 ([8]; drug conc 0.025 uM)	3D sphere count of MDAMB231 ([8]; drug conc 0.25 uM)	3D sphere count of MDAMB231 ([8]; drug conc 2.5 uM)	3D sphere count of MDAMB231 ([8]; drug conc 25 uM)	3D sphere count of MDAMB231 ([8]; drug conc 250 uM)	other results
N.N.[Cl][Pt][Cl] [Cisplatin, reference compound]	–	–	–	–	–	–	58(±4) and 47(±4) and 62(±5) and 45(±2)	47(±5) and 49(±7) and 55(±5) and 42(±3)	40(±3) and 41(±4) and 46(±2) and 39(±2)	32(±2) and 31(±5) and 33(±3) and 32(±3)	25(±3) and 30(±5) and 22(±4) and 21(±2)	50(±3) and 89(±4) and 62(±6) and 67(±2)	42(±3) and 69(±7) and 48(±2) and 58(±3)	35(±2) and 51(±5) and 43(±2) and 46(±3)	31(±3) and 38(±8) and 37(±4) and 35(±2)	18(±2) and 23(±5) and 31(±4) and 26(±3)	IC50 [2]: 28 µM and 29 µM and 40.7 µM and 35.8 µM and 36.4 µM; IC50 [3]: 29.6 µM and 32.4 µM and 33 µM; IC50 [4]: 20.6 µM and 21.3 µM and 23.8 µM and 21.9 µM; IC50 [5]: 41.7 µM and 24.8 µM and 37.3 µM and 23.9 µM; IC50 [6]: 32.7 µM and 38.5 µM and 37 µM and 35.5 µM; IC50 [7]: 23.9 µM and 43 µM and 34.4 µM and 35.5 µM
CCOC(=O)c1c(C(=O)OCC)c(-c2ccc3c(c2)OCO3)c2cc(OC)c(OC)cc2c1OC1OC[C@@H](OC)[C@H](OC)[C@H]1O (stereo partly drawn) [Formula VI, diethyl 1-(benzo[d][1,3]dioxol-5-yl)-4-((3R,4R,5R)-3-hydroxy-4,5-dimethoxy-tetrahydro-2H-pyran-2-yloxy)-6,7-dimethoxynaphthalene-2,3-dicarboxylate]	5.65	–	3.25	14.2	10.1	–	40(±3)	28(±2)	30(±2)	21(±2)	0(±0)	44(±3)	36(±2)	24(±3)	7(±2)	0(±0)	activity on normal lymphocytes [9]: does not show activity
O[C@@H]1[C@H](O)COC(Oc2ccc(-c3ccc4c(c3)OCO4)c3ccccc23)[C@H]1O (stereo partly drawn) [Formula XI, (3S,4R,5R)-2-(1-(benzo[d][1,3]dioxol-5-yl)naphthalen-4-yloxy)-tetrahydro-2H-pyran-3,4,5-triol]	4.16	4.36	18.8	2.08	9.77	10.2	–	–	–	–	–	–	–	–	–	–	–
Cl.c1ccc(COc2ccc(-c3ccc4c(c3)OCO4)c3cccnc23)cc1 [Formula XIII, 5-(benzo[d][1,3]dioxol-5-yl)-8-(benzyloxy)quinoline hydrochloride]	4.33	–	6.32	2.68	8	4.06	41(±7)	39(±5)	27(±3)	14(±1)	0(±0)	45(±2)	36(±3)	27(±2)	13(±2)	0(±0)	–

The next lines start with results.

IC50 ([2]; Homo sapiens, PC-3) [µM]	IC50 ([3]; Homo sapiens, MCF7) [µM]	IC50 ([4]; Homo sapiens, PC-3, 168 h) [µM]	IC50 [5, 10] [µM]	IC50 ([6]; Homo sapiens, MDA-MB-231) [µM]	IC50 ([7]; Homo sapiens, DU-145) [µM]	Structure (SMILES)	3D sphere count of PC3 ([1]; drug conc 0.025 uM)	3D sphere count of PC3 ([1]; drug conc 0.25 uM)	3D sphere count of PC3 ([1]; drug conc 2.5 uM)	3D sphere count of PC3 ([1]; drug conc 25 uM)	3D sphere count of PC3 ([1]; drug conc 250 uM)	3D sphere count of MDAMB231 ([8]; drug conc 0.025 uM)	3D sphere count of MDAMB231 ([8]; drug conc 0.25 uM)	3D sphere count of MDAMB231 ([8]; drug conc 2.5 uM)	3D sphere count of MDAMB231 ([8]; drug conc 25 uM)	3D sphere count of MDAMB231 ([8]; drug conc 250 uM)	other results
5.62	5.24	4.81	2.12	5.26	8.91	O=C(Oc1ccc(-c2ccc3c(c2)OCO3)c2ccccc12)C(c1ccccc1)C1CCCC1 (stereo not drawn) [Formula IX, 1-(benzo[d][1,3]dioxol-5-yl)naphthalen-4-yl 2-cyclopentyl-2-phenylacetate]	60(±7)	44(±4)	37(±5)	31(±3)	0(±0)	52(±4)	40(±5)	26(±3)	22(±3)	0(±0)	–
2.6	3.46	2.38	2.07	3.16	3.28	Cn1cccc1C(=O)Oc1ccc(-c2ccc3c(c2)OCO3)c2ccccc12 [Formula X, 1-(benzo[d][1,3]dioxol-5-yl)naphthalen-4-yl 1-methyl-1H-pyrrole-2-carboxylate]	–	–	–	–	–	39(±4)	37(±4)	28(±3)	24(±3)	0(±0)	activity on normal lymphocytes [9]: does not show activity
19.6	4.95	3.36	2.14	3.37	9.82	O=C(Nc1ccc(-c2ccc3c(c2)OCO3)c2ccccc12)c1ccco1 [Formula XII, N-(1-(benzo[d][1,3]dioxol-5-yl)naphthalen-4-yl)furan-2-carboxamide]	37(±3)	28(±3)	23(±2)	15(±2)	0(±0)	31(±2)	27(±2)	17(±2)	8(±1)	0(±0)	–
